In patent US10212936B2, “Molecules having pesticidal utility, and intermediates, compositions, and processes, related thereto” (priority 2014, dated 2019):

Legend:
Assay type in all cases: in vivo
[1] = test system: Corn Earworm (Helicoverpa zea, HELIZE); assay: Bioassay on Corn Earworm (CEW), 128-well diet tray assay; conditions: 168 h, 50 μg/cm^2 on artificial diet, second instar larvae, five to seven days, 25° C., read-out: CEW % Control (or Mortality) rating
Method: (§1) Example A: Bioassays on Beet Armyworm (Spodoptera exigua, LAPHEG) (“BAW”), Corn Earworm (Helicoverpa zea, HELIZE) (“CEW”), and Cabbage Looper (Trichoplusia ni, TRIPNI) (“CL”)
(§2) Certain molecules disclosed in this document were tested against BAW, CEW, and CL using procedures described in the following examples. In the reporting of the results, the “BAW, CEW, & CL Rating Table” was used (See Table Section).
Bioassays on CEW were conducted using a 128-well diet tray assay. one to five second instar CEW larvae were placed in each well (3 mL) of the diet tray that had been previously filled with 1 mL of artificial diet to which 50 μg/cm^2 of the test molecule (dissolved in 50 μL of 90:10 acetone-water mixture) had been applied (to each of eight wells) and then allowed to dry. Trays were covered with a clear self-adhesive cover, and held at 25° C., 14:10 light-dark for five to seven days. Percent mortality was recorded for the larvae in each well; activity in the eight wells was then averaged. The results are indicated in the table entitled “Table ABC: Biological Results” (See Table Section).

[2] = test system: Cabbage Looper (Trichoplusia ni, TRIPNI); assay: Bioassay on Cabbage Looper (CL), 128-well diet tray assay; conditions: 168 h, 50 μg/cm^2 on artificial diet, second instar larvae, five to seven days, 25° C., read-out: CL % Control (or Mortality) rating
Method: as §1, §2
Bioassays on CL were conducted using a 128-well diet tray assay. one to five second instar CL larvae were placed in each well (3 mL) of the diet tray that had been previously filled with 1 mL of artificial diet to which 50 μg/cm^2 of the test molecule (dissolved in 50 μL of 90:10 acetone-water mixture) had been applied (to each of eight wells) and then allowed to dry. Trays were covered with a clear self-adhesive cover and held at 25° C., 14:10 light-dark for five to seven days. Percent mortality was recorded for the larvae in each well; activity in the eight wells was then averaged. The results are indicated in the table entitled “Table ABC: Biological Results” (See Table Section).

[3] = test system: Beet Armyworm (Spodoptera exigua, LAPHEG); assay: Bioassay on Beet Armyworm (BAW), 128-well diet tray assay; conditions: 168 h, 50 μg/cm^2 on artificial diet, second instar larvae, five to seven days, 25° C., read-out: BAW % Control (or Mortality) rating
Method: as §1, §2
Bioassays on BAW were conducted using a 128-well diet tray assay. one to five second instar BAW larvae were placed in each well (3 mL) of the diet tray that had been previously filled with 1 mL of artificial diet to which 50 μg/cm^2 of the test molecule (dissolved in 50 μL of 90:10 acetone-water mixture) had been applied (to each of eight wells) and then allowed to dry. Trays were covered with a clear self-adhesive cover and held at 25° C., 14:10 light-dark for five to seven days. Percent mortality was recorded for the larvae in each well; activity in the eight wells was then averaged. The results are indicated in the table entitled “Table ABC: Biological Results” (See Table Section).

[4] = test system: Yellow Fever Mosquito (Aedes aegypti, AEDSAE); assay: Bioassay on Yellow Fever Mosquito (YFM) larvae, 96-well plate; conditions: about 1 day-old larvae, 4000 ppm DMSO master plate diluted, graded after 3 days
Method: Example C: Bioassays on Yellow Fever Mosquito (Aedes aegypti, AEDSAE) (“YFM”)
Certain molecules disclosed in this document were tested against YFM using procedures described in the following paragraph. In the reporting of the results, the “YFM Rating Table” was used (See Table Section).
Master plates containing 400 μg of a molecule dissolved in 100 μL of dimethyl sulfoxide (DMSO) (equivalent to a 4000 ppm solution) are used. A master plate of assembled molecules contains 15 μL per well. To this plate, 135 μL of a 90:10 water:acetone mixture is added to each well. A robot (Biomek® NXP Laboratory Automation Workstation) is programmed to dispense 15 μL aspirations from the master plate into an empty 96-well shallow plate (“daughter” plate). There are 6 reps (“daughter” plates) created per master. The created daughter plates are then immediately infested with YFM larvae.
The day before plates are to be treated, mosquito eggs are placed in Millipore water containing liver powder to begin hatching (4 g. into 400 mL). After the daughter plates are created using the robot, they are infested with 220 μL of the liver powder/larval mosquito mixture (about 1 day-old larvae). After plates are infested with mosquito larvae, a non-evaporative lid is used to cover the plate to reduce drying. Plates are held at room temperature for 3 days prior to grading. After 3 days, each well is observed and scored based on mortality. The results are indicated in the table entitled “Table ABC: Biological Results” (See Table Section).

Structure (SMILES) | mortality at 50 µg/cm2 [1] [%] | mortality at 50 µg/cm2 [2] [%] | mortality at 50 µg/cm2 [3] [%] | YFM % Control (or Mortality) rating [4]
O=C(Nc1ccc(-c2ncn(-c3ccc(OC(F)(F)F)cc3)n2)cc1)Nc1nccn1-c1ccccc1 [F20, 1-(1-Phenyl-1H-imidazol-2-yl)-3-(4-(1-(4-(trifluoromethoxy)phenyl)-1H-1,2,4-triazol-3-yl)phenyl)urea] | 50 to 100 | 50 to 100 | 50 to 100 | 
Cc1ccccc1-n1ccnc1NC(=O)Nc1ccc(-c2ncn(-c3ccc(OC(F)(F)F)cc3)n2)cc1 [F21, 1-(1-(o-Tolyl)-1H-imidazol-2-yl)-3-(4-(1-(4-(trifluoromethoxy)phenyl)-1H-1,2,4-triazol-3-yl)phenyl)urea] | 50 to 100 | 50 to 100 | 50 to 100 | 
CC(C)c1ccccc1-n1ccnc1NC(=O)Nc1ccc(-c2ncn(-c3ccc(OC(F)(F)F)cc3)n2)cc1 [F22, 1-(1-(2-Isopropylphenyl)-1H-imidazol-2-yl)-3-(4-(1-(4-(trifluoromethoxy)phenyl)-1H-1,2,4-triazol-3-yl)phenyl)urea] | 50 to 100 | 50 to 100 | 50 to 100 | 
COc1cccc(-n2ccnc2NC(=O)Nc2ccc(-c3ncn(-c4ccc(OC(F)(F)F)cc4)n3)cc2)c1 [F23, 1-(1-(3-Methoxyphenyl)-1H-imidazol-2-yl)-3-(4-(1-(4-(trifluoromethoxy)phenyl)-1H-1,2,4-triazol-3-yl)phenyl)urea] | 50 to 100 | 50 to 100 | 50 to 100 | 
Cc1cccc(-n2ccnc2NC(=O)Nc2ccc(-c3ncn(-c4ccc(OC(F)(F)F)cc4)n3)cc2)c1 [F24, 1-(1-(m-Tolyl)-1H-imidazol-2-yl)-3-(4-(1-(4-(trifluoromethoxy)phenyl)-1H-1,2,4-triazol-3-yl)phenyl)urea] | 50 to 100 | 50 to 100 | 50 to 100 | 
CC(C)c1cccc(-n2ccnc2NC(=O)Nc2ccc(-c3ncn(-c4ccc(OC(F)(F)F)cc4)n3)cc2)c1 [F25, 1-(1-(3-Isopropylphenyl)-1H-imidazol-2-yl)-3-(4-(1-(4-(trifluoromethoxy)phenyl)-1H-1,2,4-triazol-3-yl)phenyl)urea] | 50 to 100 | 50 to 100 | 50 to 100 | 
CCc1cccc(-n2ccnc2NC(=O)Nc2ccc(-c3ncn(-c4ccc(OC(F)(F)F)cc4)n3)cc2)c1 [F26, 1-(1-(3-Ethylphenyl)-1H-imidazol-2-yl)-3-(4-(1-(4-(trifluoromethoxy)phenyl)-1H-1,2,4-triazol-3-yl)phenyl)urea] | 50 to 100 | 50 to 100 | 50 to 100 | 
O=C(Nc1ccc(-c2ncn(-c3ccc(OC(F)(F)F)cc3)n2)cc1)Nc1nccn1-c1cccc(Cl)c1 [F27, 1-(1-(3-Chlorophenyl)-1H-imidazol-2-yl)-3-(4-(1-(4-(trifluoromethoxy)phenyl)-1H-1,2,4-triazol-3-yl)phenyl)urea] | 50 to 100 | 50 to 100 | 50 to 100 | 
Cc1ccc(-n2ccnc2NC(=O)Nc2ccc(-c3ncn(-c4ccc(OC(F)(F)F)cc4)n3)cc2)cc1 [F29, 1-(1-(p-Tolyl)-1H-imidazol-2-yl)-3-(4-(1-(4-(trifluoromethoxy)phenyl)-1H-1,2,4-triazol-3-yl)phenyl)urea] | 50 to 100 | 50 to 100 | 50 to 100 | 
COc1ccc(-n2ccnc2NC(=O)Nc2ccc(-c3ncn(-c4ccc(OC(F)(F)F)cc4)n3)cc2)cc1 [F30, 1-(1-(4-Methoxyphenyl)-1H-imidazol-2-yl)-3-(4-(1-(4-(trifluoromethoxy)phenyl)-1H-1,2,4-triazol-3-yl)phenyl)urea] | 50 to 100 | 50 to 100 | 50 to 100 | 
O=C(Nc1ccc(-c2ncn(-c3ccc(OC(F)(F)F)cc3)n2)cc1)Nc1nccn1-c1ccccn1 [F31, 1-(1-(Pyridin-2-yl)-1H-imidazol-2-yl)-3-(4-(1-(4-(trifluoromethoxy)phenyl)-1H-1,2,4-triazol-3-yl)phenyl)urea] | 50 to 100 | 50 to 100 | 50 to 100 | 
O=C(Nc1ccc(-c2ncn(-c3ccc(OC(F)(F)F)cc3)n2)cc1)Nc1nccn1-c1ccncc1 [F33, 1-(1-(Pyridin-4-yl)-1H-imidazol-2-yl)-3-(4-(1-(4-(trifluoromethoxy)phenyl)-1H-1,2,4-triazol-3-yl)phenyl)urea] | 50 to 100 | 50 to 100 | 50 to 100 | 
O=C(NCCc1ccc(-c2ncn(-c3ccc(OC(F)(F)F)cc3)n2)cc1)Nc1ncc(-c2ccccc2)o1 [F52, 1-(5-phenyloxazol-2-yl)-3-(4-(1-(4-(trifluoromethoxy)phenyl)-1H-1,2,4-triazol-3-yl)phenethyl)urea] | 0 | 50 to 100 | 50 to 100 | 
Cn1oc(NC(=O)NCCc2ccc(-c3ncn(-c4ccc(OC(F)(F)F)cc4)n3)cc2)c(-c2c(Cl)cccc2Cl)c1=O [F60, 1-(4-(2,6-Dichlorophenyl)-2-methyl-3-oxo-2,3-dihydroisoxazol-5-yl)-3-(4-(1-(4-(trifluoromethoxy)phenyl)-1H-1,2,4-triazol-3-yl)phenethyl)urea] |  | 50 to 100 | 50 to 100 | A (80-100)
CCc1ccccc1-c1ncsc1NC(=O)NCCc1ccc(-c2ncn(-c3ccc(OC(F)(F)F)cc3)n2)cc1 [F61, 1-(4-(2-ethylphenyl)thiazol-5-yl)-3-(4-(1-(4-(trifluoromethoxy)phenyl)-1H-1,2,4-triazol-3-yl)phenethyl)urea] |  | 50 to 100 | 0 | A (80-100)
Cc1ccc(C)c(-c2ncsc2NC(=O)NCCc2ccc(-c3ncn(-c4ccc(OC(F)(F)F)cc4)n3)cc2)c1 [F62, 1-(4-(2,5-Dimethylphenyl)thiazol-5-yl)-3-(4-(1-(4-(trifluoromethoxy)phenyl)-1H-1,2,4-triazol-3-yl)phenethyl)urea] |  | 50 to 100 | 0 | A (80-100)
COc1ccc(-c2ncsc2NC(=O)NCCc2ccc(-c3ncn(-c4ccc(OC(F)(F)F)cc4)n3)cc2)c(C)c1 [F63, 1-(4-(4-Methoxy-2-methylphenyl)thiazol-5-yl)-3-(4-(1-(4-(trifluoromethoxy)phenyl)-1H-1,2,4-triazol-3-yl)phenethyl)urea] |  | 50 to 100 | 0 | A (80-100)
O=C(NCCc1ccc(-c2ncn(-c3ccc(OC(F)(F)F)cc3)n2)cc1)Nc1scnc1-c1c(Cl)cccc1Cl [F64, 1-(4-(2,6-Dichlorophenyl)thiazol-5-yl)-3-(4-(1-(4-(trifluoromethoxy)phenyl)-1H-1,2,4-triazol-3-yl)phenethyl)urea] |  | 50 to 100 | 0 | A (80-100)
